Like-named read-outs stand apart in the source and are kept apart here. Values belong to the molecule of their own block, whether it stands above or below them.
Experiments:
[1] = biological target: T1, lecithin retinol acyl transferase (LRAT) (Bos taurus, UniProt Q9BGL2); experiment: In vitro Microsomal Assay, LRAT catalyzed retinol esterification (retinyl laurate formation); format: biochemical, bovine
T1 construct: a microsomal fraction isolated from bovine retinal pigment epithelial cells; from tissue; host or cells: bovine retinal pigment epithelium, microsomal fraction
T1 sequence (Q9BGL2 1-230): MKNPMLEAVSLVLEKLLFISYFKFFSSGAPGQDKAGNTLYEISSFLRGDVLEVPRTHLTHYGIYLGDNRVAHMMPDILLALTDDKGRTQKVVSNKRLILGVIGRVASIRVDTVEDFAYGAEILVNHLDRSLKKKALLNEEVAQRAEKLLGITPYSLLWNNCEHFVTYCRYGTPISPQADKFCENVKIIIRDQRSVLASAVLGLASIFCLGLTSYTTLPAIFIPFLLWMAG

[2] = system: acyl CoA retinol transferase (ARAT); experiment: In vitro Microsomal Assay, ARAT catalyzed retinol esterification (retinyl palmitate formation); format: biochemical, bovine
Human keratinocytes [3] = experiment: Transglutaminase Assay (TGase I ELISA, procedure for other Examples), normalized to DNA; keratinocyte differentiation; format: cell-based; settings: for TGase/ DNA (% control) / mean TGase/ DNA x10^5 ± s.d: 72 hour treatment; for mean TGase/ DNA x10^5 ± s.d: n = 3; for % Control: transglutaminase normalized to DNA; for activity at 1 µM: 1 micromolar, read-out: % of Control
Method: (§1) Human keratinocytes, isolated from neonatal foreskin by trypsin treatment were grown in Dulbecco Modification Eagle (DME) Hams F12 (1:1) medium/10% fetal calf serum in the presence of irradiated 3T3 mouse fibroblasts for establishing dividing keratinocyte colonies. Cells were grown under the above condition until their second passage and kept frozen for future use. Frozen second passage keratinocytes were thawed and plated into the above medium and grown for five days before they were switched to a serum-free MCDB 153-based medium keratinocyte growth medium (KGM) from Clonetics Corporation, San Diego, CA, containing 0.15 mM Ca, or keratinocyte serum-free media (KSFM) from GIBCO containing 0.09 mM Ca). On day 7, when the cells were 80-90% confluent, they were trypsinized and plated in the serum-free medium for the various experiments.
During the process of terminal differentiation in the epidermis, a 15nm thick layer of protein, known as the cornified envelope (CE) is formed on the inner surface of the cell periphery. The CE is composed of numerous distinct proteins which have been cross-linked together by the formation of N^ε-(γ-glutamyl) lysine isodipeptide bonds catalyzed by the action of at least two different transglutaminases (TGases) expressed in the epidermis. Transglutaminase I (TGase I) is expressed in abundance in the differentiated layers of the epidermis, especially the granular layer, but is absent in the undifferentiated basal epidermis. Thus TGase I is a useful marker of epidermal keratinocyte differentiation with high TGase I levels indicating a more differentiated state. An ELISA based TGase I assay, using a TGase I antibody, was used to assess the state of differentiation of the cultured keratinocytes in the examples that follow.
Keratinocytes (cultured as described above) were plated in 96 well plates at a density of 3,000 cells per well in 200µl of cell culture media. After incubation for four days, the media was changed to media containing test compounds (six replicates per test). The cells were cultured for a further 72 hours after which time the media was aspirated and the plates stored at -70°C. After the plates were removed from the freezer, the cells were further freezed fractured by freezing and thawing and then washed 3x with PBS. The cells were incubated for one hour at room temperature (R/T) with TBS/5% BSA buffer. Cells were then incubated with 100µl of monoclonal anti-human transglutaminase (IgG) mouse antibody (primary antibody) obtained from Biomedical Technologies Inc. diluted 1:2000 in TBS/1% BSA buffer for two hours at 37°C, and then rinsed six times with wash buffer (TBS/1% BSA/0.05% Tween-20). Cells were next incubated with 100µl of Fab fragment, peroxidase conjugated anti-mouse IgG antibody (secondary antibody) from Amersham diluted 1:4,000 in wash buffer for two hours at 37°C and then rinsed three times with wash buffer and three times with PBS. Cells were incubated with substrate solution (4mg o-phenylene diamine and 3.3µl 30% H2O2 in 10mL 0.1M citrate buffer, pH 5.0) for five minutes at R/T and in darkness (under aluminum foil). The reaction was stopped by the addition of 50µl 4N H2SO4. The absorbance of samples was read at 492nm in the plate reader. Out of the six replicates, four were treated with both antibodies, two were treated only with the secondary antibody (i.e., to determine the background binding of the enzyme conjugated antibody). Transglutaminase I levels were determined by subtracted background from the readings from each treatment and determining the mean ± s.d. for the replicates exposed to both antibodies.
The level of TGase I detected after treatment of the cells could be influenced by cell number, i.e., the greater the number of cells the greater the level of TGase-1 detected. The level of Tgase I was normalized to DNA content of the cells in the same well thus eliminating variation due to differences in cell number. […]

Human keratinocytes [4] = experiment: 3H-Thymidine incorporation, keratinocyte proliferation; format: cell-based; settings: 250 nM
Method: as §1
The incorporation of ^3H-thymidine by cultured keratinocytes was used as an assay of keratinocyte proliferation. Thymidine is one of four deoxynucleosides which are the monomeric units of DNA, the universal library of genetic information in the animal kingdom. Prior to cell division of a somatic cell such as a keratinocyte, the complete genome of the cell undergoing cell division is replicated. This involves large scale DNA synthesis by the cell and enables both daughter cells to receive identical copies of the genetic material. When ^3H-thymidine is included in the culture media of keratinocytes which are synthesizing DNA in preparation for cell division then the labelled nucleoside is incorporated into the newly synthesized DNA. The extent of incorporation of ^3H-thymidine into a population of cells is proportional to the rate of DNA synthesis by this population of cells and therefore an indication of their cellular proliferation.
Keratinocytes (that were cultured as described above) were plated in 24 well plates at a density of 20,000 cells per well in 1 ml media. After incubation for four days or until the cells were 60-70% confluent, the media was changed. Test compounds were added (in triplicate) to the wells 24 hours after the media change, and four hours later 1µCi ^3H-Thymidine in 50 µl media was added per well. Cells were incubated for a further 24 hours. Media was removed from the cells, 10% ice cold trichloroacetic acid (TCA) added and plates were incubated on ice for 30 minutes. Cells were washed five times with 5% TCA and allowed to dissolve in 500 µl 0.1M NaOH for at least one hour (usually overnight). The preparations were neutralized with 0.1M HCl; 50 µl of the cell preparation was used to determine total protein content. Disintegrations per minute (DPM) from ^3H labelling of DNA was determined by liquid scintillation counting of 900µl of the cell preparation. Thymidine incorporation results were expressed as DPM/µg protein.

Human keratinocytes [5] = experiment: Transglutaminase Assay (TGase I ELISA, Example 1 procedure), normalized to DNA; keratinocyte differentiation; format: cell-based; settings: 2.5 x 10^-7M, 2.5 x 10^-8M and 2.5x10^-9M, vs ethanol control
Method: as §1, with “experiments. […]” for “experiments.”
Keratinocytes (cultured as described above) were plated in 96 well plates at a density of 3,000 cells per well in 200 µl media. […] The absorbance of samples was read at 492nm in the plate reader. […] TGase levels were determined by subtracting background from the readings from each treatment and determining mean ± s.d. for the replicates exposed to both antibodies.
The level of TGase I detected after treatment of the cells could be influenced by cell number, i.e., the greater the number of cells the greater the level of TGase-1 detected. […]

[6] = Table 10, 100 µM, read-out: % INHIBITION, LRAT
[7] = Table 5A, 100µM, read-out: % INHIBITION, LRAT
[8] = Table 2, 100 µM, read-out: % INHIB. LRAT

inhibition at 10 µM ([1]; Table 3, 10 micromolar, read-out: % INHIB. LRAT): 0%
inhibition at 100 µM ([1]; Table 3, 100 micromolar, read-out: % INHIB. LRAT): 47%
SMILES: CCCCCCCCCCCC1=NCCN1CCO [Lauryl, lauryl hydroxyethyl imidazoline]

% INHIBITION, ARAT ([2]; Table 10, 100 µM): 33%
inhibition at 100 µM [1, 6]: 14%
SMILES: O=C1C[C@@H](c2ccc(O)cc2)Oc2cc(O)cc(O)c21 [Naringenin, naringenin]
TGase/ DNA (% control) (Human keratinocytes [3]; Table 11, 10^-7M): 94%
mean TGase/ DNA x10^5 ± s.d (Human keratinocytes [3]; Table 11, 10^-7M): 49.84 ± 2.76
TGase/ DNA (% control) (Human keratinocytes [3]; Table 12, 10^-8M): 89%
mean TGase/ DNA x10^5 ± s.d (Human keratinocytes [3]; Table 12, 10^-8M): 45.01 ± 1.90

% INHIBITION, ARAT ([2]; Table 10, 100 µM): 25%
inhibition at 100 µM [1, 6]: 14%
SMILES: O=c1c(O)c(-c2ccc(O)c(O)c2)oc2cc(O)cc(O)c12 [Quercetin, quercetin]

% INHIBITION, ARAT ([2]; Table 5A, 100µM): 83%
% INHIBITION, ARAT ([2]; Table 5B, 10µM): 67%
SMILES: C/C=C/C(=O)C1C(C)=CCCC1(C)C (stereo not drawn) [alpha damascone]
% Control (Human keratinocytes [3]; Table 7, experiment 1, 1 mM): 92%
% Control (Human keratinocytes [3]; Table 7, experiment 2, 1 mM): 86%

inhibition at 100 µM [1, 7]: 77%
SMILES: CCC(=O)/C=C/C1C(C)=CCCC1(C)C (stereo not drawn) [alpha methyl ionone]

inhibition at 100 µM [1, 7]: 49%
SMILES: CCOC(=O)C1=C(C)C=CCC1(C)C [ethyl saffranate]

% INHIBITION, ARAT ([2]; Table 5A, 100µM): 80%
inhibition at 100 µM [1, 7]: 92%
SMILES: C/C=C/C(=O)C1CCC(C)(C)C=C1C (stereo not drawn) [isodamascone]

SMILES: CCCCCCCCCCCC(=O)N(C)CC(=O)O [lauroyl sarcosine]
% INHIB. ARAT ([2]; Table 2, 100 µM): 20%
inhibition at 100 µM [1, 8]: 0%

inhibition at 100 µM [1, 8]: 0%
SMILES: CCCCCCCCC=CCCCCCCCC(=O)NCCC[N+](C)(C)CC(=O)[O-] [oleamidopropyl betaine]

inhibition at 100 µM [1, 8]: 0%
SMILES: CCCCCCCCC=CCCCCCCCC[N+](C)(C)[O-] [oleamine oxide]

SMILES: CCCCCCCC/C=C\CCCCCCCC1=NCCN1CCO [oleyl hydroxyethyl imidazoline]
activity at 1 µM (Human keratinocytes [3]; Homo sapiens, Keratinocyte, Table 4, Exp 1): 80.7%
activity at 1 µM (Human keratinocytes [3]; Homo sapiens, Keratinocyte, Table 4, Exp 2): 78.2%
activity at 1 µM (Human keratinocytes [3]; Homo sapiens, Keratinocyte, Table 4, Exp 3): 91.1%

SMILES: CC1=C(/C=C/C(C)=C/C=C/C(C)=C/C(=O)O)C(C)(C)CCC1 [retinoic acid]
TGase/ DNA (% control) (Human keratinocytes [3]; Table 11, 2.5x10^-7M): 42%
mean TGase/ DNA x10^5 ± s.d (Human keratinocytes [3]; Table 11, 2.5x10^-7M): 22.47 ± 2.31
TGase/ DNA (% control) (Human keratinocytes [3]; Table 12, 2.5x10^-7M): 32%
mean TGase/ DNA x10^5 ± s.d (Human keratinocytes [3]; Table 12, 2.5x10^-7M): 16.31 ± 2.58
TGase/ DNA (% control) (Human keratinocytes [3]; Table 13, 2.5x10^-7M): 52%
% Control (Human keratinocytes [4]; Table 9A, Experiment #1): 156%
DPM/Microgram Protein mean (Human keratinocytes [4]; Table 9A, Experiment #1): 3013 DPM/Microgram Protein
% Control (Human keratinocytes [4]; Table 9B, Experiment #2): 163%
DPM/Microgram Protein mean (Human keratinocytes [4]; Table 9B, Experiment #2): 1494 DPM/Microgram Protein

SMILES: CC1=C(/C=C/C(C)=C/C=C/C(C)=C/CO)C(C)(C)CCC1 [retinol]
% Control (Human keratinocytes [3]; Table 7, experiment 1, 0.001 mM): 67%
TGase/ DNA (% control) (Human keratinocytes [3]; Table 11, 2.5x10^-9M): 91%
TGase/ DNA (% control) (Human keratinocytes [3]; Table 11, 2.5x10^-9M, listed as Retinol): 92%
mean TGase/ DNA x10^5 ± s.d (Human keratinocytes [3]; Table 11, 2.5x10^-9M): 48.31 ± 5.31
TGase/ DNA (% control) (Human keratinocytes [3]; Table 13, 2.5x10^-7M): 90%
% Control (Human keratinocytes [4]; Table 9A, Experiment #1): 108%
DPM/Microgram Protein mean (Human keratinocytes [4]; Table 9A, Experiment #1): 2082 DPM/Microgram Protein
% Control (Human keratinocytes [4]; Table 9B, Experiment #2): 107%
DPM/Microgram Protein mean (Human keratinocytes [4]; Table 9B, Experiment #2): 974 DPM/Microgram Protein
Transglutaminase levels normalized to DNA content of the cells (Human keratinocytes [5]): decrease in transglutaminase level was dose dependent

SMILES: CCCCCCCCCCCCCCCC(=O)OC/C=C(C)/C=C/C=C(C)/C=C/C1=C(C)CCCC1(C)C [retinyl palmitate]
activity at […] (Human keratinocytes [3]; Homo sapiens, Keratinocyte, Example 12, 2.5x10^-9M, read-out: keratinocyte TGase I level (% of control)): 93%
TGase/ DNA (% control) (Human keratinocytes [3]; Table 12, 2.5x10^-8M): 93%
mean TGase/ DNA x10^5 ± s.d (Human keratinocytes [3]; Table 12, 2.5x10^-8M): 47.32 ± 4.22

SMILES: CC(=O)c1cc2c(cc1C)C(C)(C)C(C)C2C(C)C (stereo not drawn) [traseolide]
% INHIBITION, ARAT ([2]; Table 5A, 100µM): 41%

— patent publication EP0932387B1 (UNILEVER PLC, priority 1996, dated 1998)
